Reference: PMC9386326, “Dysregulated glucuronic acid metabolism exacerbates hepatocellular carcinoma progression and metastasis through the TGFβ signalling pathway” (Clinical and Translational Medicine, 2022)

Biological target: T1, PTBP3 (Homo sapiens, UniProt O95758)
T1 construct: endogenous full-length protein in human hepatoma (Huh7) cells / cell lysates
Assay: CETSA (cell lysate, immunoblot) and DARTS (pronase)
Assay type: biochemical
Details: endogenous PTBP3 in Huh7 cells / lysates; stabilisation, authors call it potential direct binding

T1 sequence (O95758 whole entry): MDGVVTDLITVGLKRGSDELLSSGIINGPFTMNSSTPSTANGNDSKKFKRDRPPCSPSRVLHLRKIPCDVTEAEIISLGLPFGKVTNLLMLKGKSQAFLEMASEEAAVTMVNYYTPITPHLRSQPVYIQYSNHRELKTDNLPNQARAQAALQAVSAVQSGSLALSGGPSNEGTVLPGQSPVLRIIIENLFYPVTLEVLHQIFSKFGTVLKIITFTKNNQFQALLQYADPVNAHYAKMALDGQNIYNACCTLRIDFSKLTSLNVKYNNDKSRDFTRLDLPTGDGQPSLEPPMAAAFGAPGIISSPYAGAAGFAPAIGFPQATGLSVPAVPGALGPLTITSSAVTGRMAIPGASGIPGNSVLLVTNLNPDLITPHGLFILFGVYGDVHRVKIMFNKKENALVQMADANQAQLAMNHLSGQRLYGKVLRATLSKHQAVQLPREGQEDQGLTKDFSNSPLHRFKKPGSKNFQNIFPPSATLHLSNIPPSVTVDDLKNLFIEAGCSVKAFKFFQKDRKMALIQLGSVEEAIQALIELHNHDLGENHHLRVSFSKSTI

O=C(O)[C@H]1O[C@H](OP(=O)(O)OP(=O)(O)OC[C@H]2O[C@@H](n3ccc(=O)[nH]c3=O)[C@H](O)[C@@H]2O)[C@H](O)[C@@H](O)[C@@H]1O [UDP-GlcUA]
CETSA (cell lysate, immunoblot) and DARTS (pronase): PTBP3 protein stability is enhanced upon UDP‐GlcUA treatment, suggesting a potential direct binding
